Test results taken from patent publication EP2272817A1, “PAI-1 INHIBITOR” (Institute of Medicinal Molecular Design, Inc., priority 2008, dated 2009).
Read-outs that look alike come from different tables or passages of the source.

How the values were obtained:
recombinant human PAI-1 [1] = biological target: T1, recombinant human PAI-1 (Homo sapiens, UniProt P05121); test: biochemical
recombinant rat PAI-1 = biological target: T2, recombinant rat PAI-1 (Rattus norvegicus, UniProt P20961); test: biochemical; conditions: read-out: Inhibition Rate of PAI-1 Activity (%)
T2 sequence (P20961 24-402): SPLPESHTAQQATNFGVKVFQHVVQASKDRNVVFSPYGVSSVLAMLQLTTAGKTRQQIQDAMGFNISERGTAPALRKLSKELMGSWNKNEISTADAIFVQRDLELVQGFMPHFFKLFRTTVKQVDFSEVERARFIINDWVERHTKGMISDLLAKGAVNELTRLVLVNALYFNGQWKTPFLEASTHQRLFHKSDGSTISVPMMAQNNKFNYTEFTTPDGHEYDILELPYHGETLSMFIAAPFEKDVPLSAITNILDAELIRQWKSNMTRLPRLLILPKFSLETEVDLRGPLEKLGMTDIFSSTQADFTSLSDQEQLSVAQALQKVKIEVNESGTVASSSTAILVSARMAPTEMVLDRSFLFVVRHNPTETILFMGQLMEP

recombinant human PAI-1 [2] = biological target: T1, recombinant human PAI-1; test: Test Example 2: Human PAI-1 Inhibitory Activity (pH 7.4 HEPES buffer, 10 minutes incubation with two-chain tPA); assay type: biochemical; parameters: purchased Molecular Innovations, Inc; conditions: read-out: Inhibition Rate of PAI-1 Activity (%)
Description: 0.1 M HEPES, 0.1 M NaCl. 1 mM EDTA. 0.1 % Polyethylene glycol 8,000 (Hampton Research Corporation),
2 mM Dimethyldecylphoshine oxide [Apo-10] (Fluka Corporation)

recombinant human PAI-1 [3] = biological target: T1, recombinant human PAI-1; test: Test Example 4: Human PAI-1 Inhibitory Activity (amount of PAI-1 bound to plate-coated one-chain tPA, ELISA); assay type: biochemical; parameters: purchased Molecular Innovations, Inc; conditions: human PAI-1 bound to tPA, read-out: Inhibition Rate of PAI-1 Activity (%); for inhibition at 0.3 µM: Compound Concentration 0.3µM; for inhibition at 1 µM: Compound Concentration 1µM; for inhibition at 3 µM: Compound Concentration 3µM
Description: 100 µl of tPA solution, where one-chain recombinant tPA (hereinafter reffered to as tPA; American diagnostica, inc.) had been diluted with Buffer A to acheive a concentration of 10 µg/ml, was added to each well of a 96-well plate (Nunc Maxisorp), and the plate was incubated for one night at 4 °C to be coated with tPA. Then, after suction of tPA solution from the 96-well plate, the plate was rinsed successively with Buffer A and Buffer B. To Buffer B, solutions of the compound according to the present invention dissolved with DMSO (final DMSO concentration: 0.2 %) and recombinant human PAI-1 (Molecular Innovations, Inc.) were added. The mixtures were blended so that the final concentrations would be 0.1 to 3.0 µM and 50 ng/ml respectively, and were incubated for 15 minutes on ice. These mixed solutions were added to the rinsed 96-well plate at 100 µl/well, and incubated for 60 minutes at room temperature. To prepare a calibration curve, PAI-1 solutions without the compound according to the present invention (solutions where the final concentrations being 100, 50, 25, 12.5, 6.25, 3.13, or 1.56 ng/ml PAI-1) were added at 100 µl/well, and the plate was incubated for 60 minutes at room temperature, as standard.
After incubation, the reaction mixture was removed by suction, and each well was rinsed with Wash Buffer. Next, anti-human PAI-1 monoclonal antibody (PROGEN Inc.) diluted with Buffer C to be 3.0 µg/ml was added to the 96-well plate at 100 µl/well, and the plate was incubated for 1 hour at room temperature. After rinsing each well with Wash Buffer, alkaline phosphatase-labeled goat anti-mouse IgG (H+L) (Jackson ImmunoResearch, Inc.) diluted with Buffer D to be 0.12 µg/ml was added at 100 µl/well, and the plate was incubated for 1 hour at room temperature. After rinsing each well with Wash Buffer, 1.0 mg/ml p-Nitrophenyl Phosphate (SIGMA) was added to the 96-well plate at 100 µl/well to start the reaction. After 30 to 60 minutes, 25 µl of 0.5 N NaOH was added to stop the reaction, and the absorbance was measured at 405 nm using a multiplate reader (GENios; TECAN G.M.B.H.).
Based on the calibration curve prepared from the standard wells, amounts of PAI-1 bound to tPA in the wells that had been treated with the compound according to the present invention were calculated, and the PAI-1 inhibition rates by the compounds according to the present invention were obtained by the following equation. [API-1InhibitionRate(%)] = [1-(amountofPAI-1boundtotPaonthewellbytreatmentwiththecompondaccordingtothepresentinvention)/(amountofPAI-1boundtotPAonthewellbytreatmentwithPAI-1solutionnotincledingthecompondaccordingtotheinvention(solution having the final concentration of 50 nb/ml PAI-1)] × 100 [formula] • <Composition of Buffer A> 0.1 M Tris-HCl, 150 mM NaCl, pH 7.7 • <Composition of Buffer B> 50 mM sodium phosphate, 0.1 M NaCl, 1 mM EDTA, pH 6.6 • <Composition of Buffer C> 50 mM sodium phosphate, 100 mM NaCl, pH 7.4 • <Composition of Buffer D> 0.01 M Tris-HCl, 0.25 M NaCl, pH 8.0 • <Compositon of Wash Buffer> 0.05 % Tween 20, 0.1 % BSA in Buffer A • <Composition of p-Nitrophenyl Phosphate solution> 1 M Diethanolamine 0.5 mM MgCl2, p-Nitrophenyl phosphate, pH 9.8

[4] = read-out: Inhibition Rate of PAI-1 Activity (%), Compound Concentration 5µM
[5] = read-out: Inhibition Rate of PAI-1 Activity (%), Compound Concentration 10µM
[6] = read-out: Inhibition Rate of PAI-1 Activity (%), Compound Concentration 25µM
[7] = read-out: Inhibition Rate of PAI-1 Activity (%)

T1 sequence (P05121 24-402): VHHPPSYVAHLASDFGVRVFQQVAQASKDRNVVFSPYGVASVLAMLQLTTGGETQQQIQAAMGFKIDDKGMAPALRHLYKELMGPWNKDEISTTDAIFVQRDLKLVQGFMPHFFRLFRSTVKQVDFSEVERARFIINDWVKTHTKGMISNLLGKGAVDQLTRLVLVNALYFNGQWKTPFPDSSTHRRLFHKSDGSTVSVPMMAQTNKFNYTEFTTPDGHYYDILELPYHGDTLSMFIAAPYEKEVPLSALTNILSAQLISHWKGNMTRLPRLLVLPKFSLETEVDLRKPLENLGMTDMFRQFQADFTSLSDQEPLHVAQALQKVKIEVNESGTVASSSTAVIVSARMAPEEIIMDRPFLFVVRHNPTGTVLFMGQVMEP

inhibition at 5 µM (recombinant human PAI-1 [1]; [7]) [%]	inhibition at 10 µM (recombinant human PAI-1 [1]; [7]) [%]	inhibition at 25 µM (recombinant human PAI-1 [1]; [7]) [%]	Structure (SMILES)	inhibition at 5 µM (recombinant human PAI-1 [1]; [4]) [%]	inhibition at 10 µM (recombinant human PAI-1 [1]; [5]) [%]	inhibition at 0.3 µM (recombinant rat PAI-1) [%]	inhibition at 1 µM (recombinant rat PAI-1) [%]	inhibition at 3 µM (recombinant rat PAI-1) [%]	inhibition at 10 µM (recombinant rat PAI-1) [%]	inhibition at 0.1 µM (recombinant human PAI-1 [2]) [%]	inhibition at 0.3 µM (recombinant human PAI-1 [2]) [%]	inhibition at 1 µM (recombinant human PAI-1 [2]) [%]	inhibition at 3 µM (recombinant human PAI-1 [2]) [%]	inhibition at 0.3 µM (recombinant human PAI-1 [3]) [%]	inhibition at 1 µM (recombinant human PAI-1 [3]) [%]	inhibition at 3 µM (recombinant human PAI-1 [3]) [%]	inhibition at 25 µM (recombinant human PAI-1 [1]; [6]) [%]	inhibition at 5 µM (recombinant human PAI-1 [1]; read-out: Inhibition Rate of PAI Activity (%), Compound Concentration 5µM) [%]	inhibition at 10 µM (recombinant human PAI-1 [1]; read-out: Inhibition Rate of PAI Activity (%), Compound Concentration 10µM) [%]
–	–	–	CCCCCOc1ccc(-c2ccc(OC(F)(F)F)cc2)cc1N(Cc1ccc(C(C)(C)C)cc1)C(=O)C(=O)O [Compound 194]	84	84	5	39	98	> 99	0	7	63	98	6	22	56	–	–	–
–	–	–	COc1cc(OC)c(N(Cc2ccc(C(C)(C)C)cc2)C(=O)C(=O)O)cc1-c1ccc(OC(F)(F)F)cc1 [Compound 190]	65	91	0	11	66	> 99	2	3	27	95	0	9	55	91	–	–
34	82	95	CC(C)(C)c1ccc(Oc2cc(-c3ccc(OC(F)(F)F)cc3)ccc2OCC(=O)O)cc1 [Compound 112]	–	–	0	14	75	96	0	19	56	> 99	0	6	36	–	–	–
–	–	–	CCCOc1ccc(N(Cc2ccc(C(C)(C)C)cc2)C(=O)C(=O)O)c(-c2ccc(OC(F)(F)F)cc2)c1 [Compound 198]	79	95	4	12	84	89	11	8	33	> 99	6	4	33	85	–	–
–	–	–	CCN(CC)c1ccc(N(Cc2ccc(C(C)(C)C)cc2)C(=O)C(=O)O)c(-c2ccc(OC(F)(F)F)cc2)c1 [Compound 208]	89	98	0	12	82	81	10	1	36	99	0	6	36	–	–	–
43	82	94	CC(C)(C)c1ccc(Oc2cc(-c3ccc(OC(F)(F)F)cc3)ccc2CCC(=O)O)cc1 [Compound 80]	–	–	0	11	71	84	3	11	44	> 99	0	0	29	–	–	–
–	–	–	CC(C)(C)c1ccc(Oc2ccc(-c3ccc(OC(F)(F)F)cc3)cc2CCC(=O)O)cc1 [Compound 13]	–	–	0	14	69	> 99	5	8	36	99	7	14	41	–	83	93
42	83	96	CC(C)(C)c1ccc(Oc2cc(Oc3ccc(OC(F)(F)F)cc3)ccc2CCC(=O)O)cc1 [Compound 90]	–	–	0	0	77	90	4	6	22	97	2	9	70	–	–	–
–	–	–	CC(C)(C)c1ccc(CN(C(=O)C(=O)O)c2ccc(Oc3ccc(OC(F)(F)F)cc3)cc2C(F)(F)F)cc1 [Compound 174]	61	92	0	11	76	94	0	0	26	96	0	7	32	91	–	–
64	91	98	CC(C)(C)c1ccc(Oc2ccc(Oc3ccc(OC(F)(F)F)cc3)cc2CCC(=O)O)cc1 [Compound 100]	–	–	0	7	70	> 99	0	2	29	93	7	37	79	–	–	–
